Reference: paper PMC10403075, “Short hydrocarbon stapled ApoC2-mimetic peptides activate lipoprotein lipase and lower plasma triglycerides in mice” (Frontiers in Cardiovascular Medicine, 2023)
Positions of bridges follow the written chain, without caps; N, C: chain ends. Non-standard residues stand in square brackets, D forms with d. Residues, ends and D or L forms follow the SMILES beside them. R8 = C=CCCCCCC[C@@](C)(N)C(=O)O; S5 = C=CCCC[C@](C)(N)C(=O)O

Biological target: T1, LPL from bovine milk (Bos taurus, UniProt P11151)
T1 construct: LPL from bovine milk (Sigma-Aldrich); purchased Sigma-Aldrich; host or cells: bovine milk (natural source)
T1 sequence (P11151 29-478): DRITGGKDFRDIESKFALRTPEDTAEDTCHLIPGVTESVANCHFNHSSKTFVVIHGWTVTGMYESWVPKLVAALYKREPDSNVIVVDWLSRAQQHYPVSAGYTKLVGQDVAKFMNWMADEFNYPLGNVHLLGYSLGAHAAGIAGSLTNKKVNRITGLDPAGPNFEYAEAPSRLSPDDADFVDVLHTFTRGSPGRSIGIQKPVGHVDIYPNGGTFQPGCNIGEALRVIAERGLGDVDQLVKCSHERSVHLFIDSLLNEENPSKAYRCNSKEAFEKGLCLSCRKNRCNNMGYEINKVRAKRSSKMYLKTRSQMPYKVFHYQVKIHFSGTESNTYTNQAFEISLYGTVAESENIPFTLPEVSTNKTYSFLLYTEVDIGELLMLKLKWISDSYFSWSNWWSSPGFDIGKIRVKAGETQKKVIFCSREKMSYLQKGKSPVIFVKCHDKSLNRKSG
Experiment: In vitro LPL activity assay (NEFA generation, ApoC2-deficient plasma substrate)
Assay type: biochemical
Conditions: 0-2 µM peptide, ApoC2-deficient plasma substrate, NEFA read-out, triplicates; for EC50: 0.83 nM bovine milk LPL, 30 min on ice then 37°C 1 h, read-out: EC50 for stimulating lipolysis (LPL activation)
Procedure: LPL activity was determined by measuring the generation of non-esterified fatty acids (NEFA). In a 96-well plate, 0–2 µM of an ApoC2 mimetic peptide, 0.83 nM of LPL from bovine milk (Sigma-Aldrich), ApoC2-deficient ethylenediaminetetraacetic acid (EDTA)-plasma (diluted with PBS to a final TG concentration of 0.67 mg/dl), 2 IU/ml heparin, 0.2% fatty acids free bovine serum albumin (BSA) (ICN Biomedicals), and PBS (Life Technologies) were combined in a final reaction volume of 50 μl. The reaction mixture was pre-incubated on ice for 30 min and incubated at 37°C for 1 h. NEFA were measured with a coupled enzyme reaction (Wako Diagnostics) in a Synergy H1 microplate reader (BioTek, USA).

SMILES	EC50	in vitro LPL activation, dose response (result in words) (bovine milk LPL, 37°C 1 h)
CC[C@H](C)[C@@H]1NC(=O)CNC(=O)[C@H]([C@@H](C)O)NC(=O)[C@H](Cc2ccc(O)cc2)NC(=O)[C@H]([C@@H](C)O)NC(=O)[C@](C)(NC(=O)[C@H](CCSC)NC(=O)[C@H](C)NC(=O)[C@H](C)NC(=O)[C@@H](NC(=O)[C@H](CO)NC(=O)[C@H](CCCCN)NC(=O)[C@H](CO)NC(=O)[C@H](Cc2ccc(O)cc2)NC(=O)[C@H](CC(C)C)NC(=O)[C@H](CC(=O)O)NC(=O)[C@H](CCCNC(=N)N)NC(=O)[C@H](CC(C)C)NC(=O)[C@H](CCCCN)NC(=O)[C@@H](N)CCC(=O)O)[C@@H](C)O)CCCCCCC=CCCC[C@@](C)(C(=O)N[C@@H](CC(=O)O)C(=O)N[C@@H](CCC(N)=O)C(=O)N[C@H](C(=O)N[C@@H](CC(C)C)C(=O)N[C@@H](CO)C(=O)N[C@H](C(=O)N[C@@H](CC(C)C)C(=O)N[C@@H](CCCCN)C(=O)NCC(=O)N[C@@H](CCC(=O)O)C(=O)N[C@@H](CCC(=O)O)C(=O)O)C(C)C)C(C)C)NC(=O)[C@H](Cc2ccccc2)NC1=O [P5] (H-EKLRDLYSKSTAAM[R8]TYTGIF[S5]DQVLSVLKGEE-OH; staple 15-22)	25 to 33 nM	–
CC[C@H](C)[C@@H]1NC(=O)CNC(=O)[C@H]([C@@H](C)O)NC(=O)[C@H](Cc2ccc(O)cc2)NC(=O)[C@H]([C@@H](C)O)NC(=O)[C@](C)(NC(=O)[C@H](CCSC)NC(=O)[C@H](C)N)CCCCCCC=CCCC[C@@](C)(C(=O)N[C@@H](CC(=O)O)C(=O)N[C@@H](CCC(N)=O)C(=O)N[C@H](C(=O)N[C@@H](CC(C)C)C(=O)N[C@@H](CO)C(=O)N[C@H](C(=O)N[C@@H](CC(C)C)C(=O)N[C@@H](CCCCN)C(=O)NCC(=O)N[C@@H](CCC(=O)O)C(=O)N[C@@H](CCC(=O)O)C(=O)O)C(C)C)C(C)C)NC(=O)[C@H](Cc2ccccc2)NC1=O [P6] (H-AM[R8]TYTGIF[S5]DQVLSVLKGEE-OH; staple 3-10 (inferred); N-terminus and C-terminus assumed)	–	just as active
CC[C@H](C)[C@H](NC(=O)CNC(=O)[C@]1(C)CCCC=CCCCCCC[C@@](C)(NC(=O)[C@H](CO)NC(=O)[C@H](CCCCN)NC(=O)[C@H](CO)NC(=O)[C@H](Cc2ccc(O)cc2)NC(=O)[C@H](CC(C)C)NC(=O)[C@H](CC(=O)O)NC(=O)[C@H](CCCNC(=N)N)NC(=O)[C@H](CC(C)C)NC(=O)[C@H](CCCCN)NC(=O)[C@@H](N)CCC(=O)O)C(=O)N[C@@H](C)C(=O)N[C@@H](C)C(=O)N[C@@H](CCSC)C(=O)N[C@@H](CO)C(=O)N[C@@H]([C@@H](C)O)C(=O)N[C@@H](Cc2ccc(O)cc2)C(=O)N1)C(=O)N[C@@H](Cc1ccccc1)C(=O)N[C@H](C(=O)N[C@@H](CC(=O)O)C(=O)N[C@@H](CCC(N)=O)C(=O)N[C@H](C(=O)N[C@@H](CC(C)C)C(=O)N[C@@H](CO)C(=O)N[C@H](C(=O)N[C@@H](CC(C)C)C(=O)N[C@@H](CCCCN)C(=O)NCC(=O)N[C@@H](CCC(=O)O)C(=O)N[C@@H](CCC(=O)O)C(=O)O)C(C)C)C(C)C)[C@@H](C)O [P3] (H-EKLRDLYSKS[R8]AAMSTY[S5]GIFTDQVLSVLKGEE-OH; staple 11-18)	25 to 33 nM	–
